Measured values taken from US12016334B2, “Composition comprising sulphated galactose, and implementations thereof” (priority 2018, dated 2024).

Test system: Alternaria solani
Test: Detached tomato leaf antifungal assay
Assay type: in vivo
Settings: for size of the fungus induced damage compared to untreated control: 80 mg/L spray

| Compound | fungal lesion size compared to untreated control (8 mg/L spray) | size of the fungus induced damage compared to untreated control |
| --- | --- | --- |
| O=C[C@H](O)[C@@H](O)[C@@H](OS(=O)(=O)O)[C@H](O)CO [Gal-S, D-galactose-4-O-sulphate] | does not show significant reduction in the fungal lesion size | significant reduction in the size of the fungus induced damage |
| O=Cc1ccc(CO)o1 [HMF, Hydroxymethylfurfural] | – | significant reduction in the size of the fungus induced damage |
